The values that follow come from patent US6413938B1, “Benzimidazole derivatives for the treatment of viral infections” (The Regents of the University of Michigan, priority 1997, dated 2002).

One series concerns HCMV strain AD169. Nature of the series: Human Cytomegalovirus Assay. It is filed as cell-based. The conditions noted are these: Human betaherpesvirus 5, 120 h; HCMV strain AD169 on MRC5 cell monolayers, 5 days, HCMV DNA by blotting and hybridization. How it is done:
HCMV strain AD169 was grown on monolayers of human embryonic lung cells (MRC5 cells) in 96 well plates. After infection of the cells at a ratio of approximately 0.01 infectious virus particles per cell; the compounds to be tested were added to selected wells at six different concentrations, each in triplicate. The same concentrations of compounds were also applied to wells containing monolayers of uninfected cells in order to assess compound cytotoxicity. The plates were incubated for 5 days, and the minimum cytotoxic dose was estimated from microscopic examination. The IC50 for antiviral effect was estimated from measurements of HCMV DNA in each well by blotting and quantitative specific DNA hybridization, similar to the method of Gadler (Antimicrob. Agents Chemother. 1983, 24, 370-374).
On to `CC(C)Nc1nc2c(Cl)cc(Cl)cc2n1[C@@H]1O[C@H](C)[C@@H](O)[C@H]1O` [Example 9, 4,6-Dichloro-1-(5-deoxy-beta-D-ribofuranosyl)-N-(1-methylethyl)-1H-benzimidazol-2-amine], for which inhibition was half-maximal at 6.9 µM (IC50).
On the same count and under the same terms, the value for `CC(C)Nc1nc2c(Cl)c(Cl)ccc2n1[C@@H]1O[C@H](C)[C@@H](O)[C@H]1O` [Example 12, 4,5-Dichloro-1-(5deoxy-beta-D-ribofuranosyl)-N-(1-methylethyl)-1H-benzimidazol-2-amine] was 3.5 µM; that for `CC(C)Nc1nc2cc(C(F)(F)F)ccc2n1[C@@H]1O[C@H](C)[C@@H](O)[C@H]1O` [Example 44, 5-Trifluoromethyl-1-(5-Deoxy-beta-D-ribofuranosyl)-N-(1-methylethyl)-1H-benzimidazol-2-amine] was 7 µM.
Same read-out and setting: with `CC(C)Nc1nc2ccc(C(F)(F)F)cc2n1[C@@H]1O[C@H](C)[C@@H](O)[C@H]1O` [Example 46, 6-trifluoromethyl-1-(5-Deoxy-beta-D-ribofuranosyl)-N-(1-methylethyl)-1H-benzimidazol-2-amine] the figure was 6.1 µM.
`CC(C)Nc1nc2ccc(Cl)cc2n1[C@@H]1O[C@H](C)[C@@H](O)[C@H]1O` [Example 50, 6-Chloro-1-(5-deoxy-β-D-ribofuranosyl)-N-(1-methylethyl)-1H-benzimidazol-2-amine] returned an IC50 of 7 µM.
Take `C[C@H]1O[C@@H](n2c(NC3CC3)nc3cc(Cl)c(Cl)cc32)[C@H](O)[C@@H]1O` [Example 59, 5,6-Dichloro-1-(5-deoxy-beta-D-ribofuranosyl)-N-(cyclopropyl)-1H-benzimidazol-2-amine]: the IC50 turned out to be 1.1 µM. This IC50 is about 6.4-fold lower than that of the molecule before.

Test system in the next series: not given
Assay: not given
Conditions: not given
For `C[C@H]1O[C@@H](n2c(Br)nc3cc(Cl)c(Cl)cc32)[C@H](O)[C@@H]1O` (hydrate or solvate) [Example 4, 2-Bromo-5,6-dichloro-1-(5-deoxy-beta-D-ribofuranosyl)-1H-benzimidazole], the melting point was 133 to 135 °C.
In the case of `CC(C)Nc1nc2c(F)c(F)c(F)cc2n1[C@@H]1O[C@H](C)[C@@H](O)[C@H]1O` [Example 19, 4,5,6-Trifluoro-1-(5-deoxy-beta-D-ribofuranosyl)-N-(1-methylethyl)-1H-benzimidazol-2-amine], the melting point was 148 to 151 °C.
For the molecule `CC(C)Nc1nc2cc(F)c(F)c(F)c2n1[C@@H]1O[C@H](C)[C@@H](O)[C@H]1O` [Example 20, 5,6,7-Trifluoro-1-(5-deoxy-beta-D-ribofuranosyl)-N-(1-methylethyl)1H-benzimidazol-2-amine], the melting point was 175 to 178 °C.
Same read-out and setting: the value for `CC(=O)O[C@@H]1[C@H](OC(C)=O)[C@@H](C)O[C@H]1n1c(Cl)nc2c(Cl)c(Cl)c(Cl)cc21` [Example 68, 2,4,5,6-Tetrachloro-1-(2,3-di-O-acetyl-5-deoxy-beta-D-ribofuranosyl)-1H-benzimidazole] was 126 to 127 °C.
Molecule `CC(=O)O[C@@H]1[C@H](OC(C)=O)[C@@H](C)O[C@H]1n1c(Br)nc2c(Cl)c(Cl)c(Cl)cc21` [Example 69, 2-Bromo4,5,6-trichloro-1-(2,3-di-O-acetyl-5-deoxy-beta-D-ribofuranosyl)-1H-benzimidazole] returned a melting point of 160 to 162 °C.
The same measure, in the same setting: the value for `CC(=O)O[C@@H]1[C@H](OC(C)=O)[C@@H](C)O[C@H]1n1c(Cl)nc2c(Br)c(Cl)c(Cl)cc21` [Example 70, 4-Bromo-2,5,6-trichloro-1-(2,3-di-O-acetyl-5-deoxy-beta-D-ribofuranosyl)-1H-benzimidazole] was 138 to 141 °C; that for `CC(=O)O[C@@H]1[C@H](OC(C)=O)[C@@H](C)O[C@H]1n1c(Br)nc2c(Br)c(Cl)c(Cl)cc21` [Example 71, 2,4-Dibromo-5,6-dichloro-1-(2,3-di-O-acetyl-5-deoxy-beta-D-ribofuranosyl)-1H-benzimidazole] was 152 to 154 °C.
On the same count and under the same terms, with `C[C@H]1O[C@H](n2c(Cl)nc3cc(Cl)c(Cl)cc32)[C@@H](O)[C@H]1O` [Example 72, 2,5,6-Trichloro-1-(5-deoxy-α-D-lyxofuranosyl)1H-benzimidazole] the figure was 120 to 122 °C; with `C[C@H]1O[C@@H](n2c(Br)nc3cc(Cl)c(Cl)cc32)[C@H](O)[C@@H]1O` [Example 73, 2-Bromo-5,6-dichloro-1-(5-deoxy-β-D-ribofuranosyl)benzimidazole], 145 to 148 °C.
